Measurements as given in ChEMBL document CHEMBL3988442, “University of Dundee, Small-Polar-MMV Screening Library” (2021).
Several values for one entry are separate records, joined by “and”; a condition that tells them apart may be missing. Identical values can stand only once.

Legend:
Histidine--tRNA ligase [1] = target: T1, Histidine--tRNA ligase (Trypanosoma cruzi (strain CL Brener), UniProt Q4DA54); assay: Trypanosoma cruzi histidyl tRNA synthetase (Tc-HisRS); type: functional
T1 sequence (Q4DA54 whole entry): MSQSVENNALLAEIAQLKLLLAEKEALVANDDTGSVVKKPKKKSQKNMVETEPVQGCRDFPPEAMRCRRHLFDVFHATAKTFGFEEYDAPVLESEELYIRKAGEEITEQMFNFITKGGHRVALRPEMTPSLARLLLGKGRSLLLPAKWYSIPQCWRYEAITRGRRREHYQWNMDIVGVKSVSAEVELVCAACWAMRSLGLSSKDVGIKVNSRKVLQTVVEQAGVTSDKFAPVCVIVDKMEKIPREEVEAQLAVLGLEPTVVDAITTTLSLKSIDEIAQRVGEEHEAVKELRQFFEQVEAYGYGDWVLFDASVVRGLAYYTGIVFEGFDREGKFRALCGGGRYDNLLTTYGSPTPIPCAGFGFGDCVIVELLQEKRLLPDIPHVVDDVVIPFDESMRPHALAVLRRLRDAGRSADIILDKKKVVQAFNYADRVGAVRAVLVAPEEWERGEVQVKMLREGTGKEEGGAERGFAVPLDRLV

Histidine--tRNA ligase [2] = target: T2, Histidine--tRNA ligase (Leishmania infantum, UniProt A4I591); assay: Leishmania infantum Histidine tRNA synthetase (LdHisRS); type: functional
T2 sequence (A4I591 whole entry): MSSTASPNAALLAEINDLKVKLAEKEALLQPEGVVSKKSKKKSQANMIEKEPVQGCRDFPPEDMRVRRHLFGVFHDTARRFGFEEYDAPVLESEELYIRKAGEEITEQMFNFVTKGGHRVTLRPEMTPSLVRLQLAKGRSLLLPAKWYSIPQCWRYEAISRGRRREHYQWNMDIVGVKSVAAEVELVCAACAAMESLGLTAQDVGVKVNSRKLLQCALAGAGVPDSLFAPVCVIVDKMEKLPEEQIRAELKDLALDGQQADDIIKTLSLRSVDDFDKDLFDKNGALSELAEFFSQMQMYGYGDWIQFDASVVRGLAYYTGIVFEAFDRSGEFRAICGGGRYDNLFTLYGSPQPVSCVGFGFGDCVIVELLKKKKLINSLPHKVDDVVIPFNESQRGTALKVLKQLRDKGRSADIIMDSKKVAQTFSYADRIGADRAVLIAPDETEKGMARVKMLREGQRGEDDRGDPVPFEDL

Lysine--tRNA ligase = Lysine--tRNA ligase (Plasmodium falciparum (isolate 3D7), UniProt Q8IDJ8); assay: Pf-KRS-1 (Lysyl-RNA Synthetase-1, KRS-1, cytosolic KRS) from Plasmodium falciparum. Inhibitor assay, 384 well plate, luminescence read.; type: functional
Sequence of Lysine--tRNA ligase (Q8IDJ8 whole entry): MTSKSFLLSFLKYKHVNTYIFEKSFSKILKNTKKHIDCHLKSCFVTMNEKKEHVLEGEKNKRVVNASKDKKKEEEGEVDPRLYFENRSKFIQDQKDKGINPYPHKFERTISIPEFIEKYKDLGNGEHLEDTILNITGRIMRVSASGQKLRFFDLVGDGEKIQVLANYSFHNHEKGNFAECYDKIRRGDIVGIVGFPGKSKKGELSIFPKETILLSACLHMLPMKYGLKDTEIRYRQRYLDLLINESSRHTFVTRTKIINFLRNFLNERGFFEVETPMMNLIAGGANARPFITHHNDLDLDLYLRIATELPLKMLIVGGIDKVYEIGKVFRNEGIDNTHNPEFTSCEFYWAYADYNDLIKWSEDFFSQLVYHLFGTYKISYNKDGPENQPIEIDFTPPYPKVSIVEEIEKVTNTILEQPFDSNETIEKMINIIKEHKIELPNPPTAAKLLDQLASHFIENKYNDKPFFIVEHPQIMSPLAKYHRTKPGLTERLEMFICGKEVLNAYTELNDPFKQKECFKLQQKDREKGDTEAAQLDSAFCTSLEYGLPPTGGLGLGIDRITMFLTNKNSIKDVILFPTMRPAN

[3] = microbe, parasite or virus in culture; conditions: Mycobacterium tuberculosis, 96 h, read-out: pIC50 (converted)
[4] = microbe, parasite or virus in culture; conditions: Mycobacterium tuberculosis, 72 h, read-out: pIC50 (converted)
[5] = target: T3, Coenzyme A biosynthesis bifunctional protein CoaBC (Mycobacterium tuberculosis (strain ATCC 25618 / H37Rv), UniProt P9WNZ1); assay: Biomol Green assay for MtCoaBC inhibitor, OD650 read; type: functional
T3 sequence (P9WNZ1 whole entry): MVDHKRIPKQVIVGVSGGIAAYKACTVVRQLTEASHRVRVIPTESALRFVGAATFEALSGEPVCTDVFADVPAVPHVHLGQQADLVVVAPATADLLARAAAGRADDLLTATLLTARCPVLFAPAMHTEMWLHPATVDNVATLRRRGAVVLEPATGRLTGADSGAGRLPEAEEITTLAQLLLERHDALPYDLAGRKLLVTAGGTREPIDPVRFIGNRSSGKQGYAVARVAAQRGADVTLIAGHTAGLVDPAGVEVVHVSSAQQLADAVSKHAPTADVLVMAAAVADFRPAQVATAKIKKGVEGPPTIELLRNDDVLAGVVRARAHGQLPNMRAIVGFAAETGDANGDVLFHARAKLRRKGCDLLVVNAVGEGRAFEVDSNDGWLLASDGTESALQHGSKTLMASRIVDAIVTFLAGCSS

Plasmodium falciparum = assay: Calibr Malaria Delayed Death Assay SOP; type: functional, organism-based

Compound | IC50 (Histidine--tRNA ligase [1]) | IC50 (Histidine--tRNA ligase [2]) | other results
O=C(O)c1ccc2ccc(N3CCN(CC4CC4)CC3)n2c1 | 38.6 µM and 57.7 µM | – | –
Cc1ccc(N2CC3(CCN(c4nccs4)C3)C2)nn1 | > 100 µM | – | –
O=C(O)c1ccccc1-c1ccc(CN2CC(c3ccncn3)C2)o1 | 52.3 µM and 57.8 µM | – | –
Cc1nccc(C2CN(Cc3ccc(-c4ccccc4C(=O)O)o3)C2)n1 | > 100 µM | – | –
Nc1nccc(C2CN(Cc3ccc(-c4ccccc4C(=O)O)o3)C2)n1 | 32.2 µM and 50.5 µM | 25.3 µM and 25.4 µM | –
Cc1ccnc(C2CN(Cc3ccc(-c4ccccc4C(=O)O)o3)C2)n1 | 48.1 µM and 40.7 µM | – | –
Fc1ccc(F)c(CN2CCC(c3cnccn3)CC2)c1 | > 100 µM | – | –
Fc1cc(F)cc(CN2CCC(c3cc4ncccc4cn3)CC2)c1 | > 100 µM | – | –
O=C(O)c1cncc(Cc2ccccc2F)c1 | > 100 µM | – | –
O=C(O)c1cncc(Cc2ccc(F)cc2)c1 | > 100 µM | – | –
O=C(O)c1ccc(Cc2cccc(F)c2)nc1 | > 100 µM | – | –
O=C(O)c1cncc(Cc2cccc(F)c2)c1 | > 100 µM | – | –
Cn1cc(NC(=O)N2CCCC2c2ccccn2)ccc1=O (centres undefined) | 9.32 µM and 9.24 µM | 2.71 µM and 1.57 µM and 2.82 µM and 1.51 µM | IC50 (Lysine--tRNA ligase): > 50.1 µM
Cn1cc(NC(=O)N2CCCC2c2cccnc2)ccc1=O (centres undefined) | 5.39 µM and 6.42 µM | 5.84 µM and 5.74 µM | –
CC1CCN(c2ccc(C(=O)N3CCCC3c3nncn3C)cn2)CC1 (centres undefined) | > 100 µM | – | –
CCCn1cc(NC(=O)c2ccc(NC(=O)NC3CC3)cc2)ccc1=O | 4.75 µM and 4.19 µM | 5.84 µM and 7.08 µM | –
CCCn1cc(NC(=O)c2ccc(N(C)CC)cc2)ccc1=O | > 100 µM | – | –
CCCn1cc(NC(=O)c2ccncc2)ccc1=O | 5.29 µM and 4 µM | 3.64 µM and 3.18 µM | IC50 (Lysine--tRNA ligase): > 50.1 µM
CCCn1cc(NC(=O)c2ccc(S(=O)(=O)CC)cc2)ccc1=O | 2.37 µM and 2.75 µM | 1.47 µM and 1.05 µM and 2.81 µM and 2.06 µM | IC50 (Lysine--tRNA ligase): > 50.1 µM

Compound | IC50 (Histidine--tRNA ligase [1]) | IC50 (Histidine--tRNA ligase [2]) | other results
CCCn1cc(NC(=O)c2cccnc2O)ccc1=O | > 100 µM | – | –
CC(C)(C)c1nc(CNC2CCCN(c3cccnn3)C2)no1 (centres undefined) | 39.6 µM and 34.1 µM | – | IC50 [3]: > 50.1 µM; IC50 [4]: > 50.1 µM
c1cnnc(N2CCCC(NCc3nc(-c4ccsc4)no3)C2)c1 (centres undefined) | > 100 µM | – | –
c1cnnc(N2CCCC(NCc3nc(-c4cccs4)no3)C2)c1 (centres undefined) | > 100 µM | – | –
c1ccc(-c2noc(CNC3CCCN(c4cccnn4)C3)n2)nc1 (centres undefined) | > 100 µM | 34.2 µM and 44.7 µM | –
COC(=O)c1ccc(CNC(=O)Nc2ccc(=O)n(C)c2)cc1 | 3.6 µM and 3.34 µM | 1.41 µM and 1.19 µM and 3.2 µM and 2.68 µM | –
Cn1cc(NC(=O)CCc2ccsc2)ccc1=O | 13.3 µM and 13.9 µM | 12.7 µM and 13.3 µM | –
Cc1cc(=O)n(C)cc1NC(=O)Cc1ccc(C(F)(F)F)cc1 | 5.22 µM and 5.49 µM | 6.69 µM and 5.43 µM | –
Cc1cc(CNC2CCCN(c3cccnn3)C2)no1 (centres undefined) | > 100 µM | – | –
c1cnnc(N2CCCC(NCc3nc(C4CC4)no3)C2)c1 (centres undefined) | 52.8 µM and 48.2 µM | – | –
COCCc1noc(CNC2CCCN(c3cccnn3)C2)n1 (centres undefined) | > 100 µM | – | –
c1ccc(CNc2ncc(CN3CCCN4CCC[C@H]4C3)cn2)cc1 | 39.6 µM and 38.3 µM | – | –
O=C(O)CNc1cc(-c2nccnc2N2CCCC2)c2cc[nH]c2n1 | 38.4 µM and 34.5 µM | – | –
NCC1Cc2cc(-c3nccc(N4CCC(O)CC4)n3)cc(Cl)c2O1 (centres undefined) | 48.1 µM and 22.3 µM | 20.9 µM and 21 µM | IC50 [5]: > 30.2 µM; pIC50 (Plasmodium falciparum): 6.303; IC50 (Plasmodium falciparum; Plasmodium falciparum): 0.545 µM
Nc1cc(-c2nccnc2N2CCCC2)c2cc[nH]c2n1 | 64.4 µM and 75.3 µM | – | –
CNc1cc(-c2ccccc2CN)c2cc[nH]c2n1 | 22.6 µM and 37.8 µM | 10.6 µM and 10.1 µM | IC50 [5]: > 30.2 µM
COc1cccn(CC(=O)N2CCCC3(CCOCC3)C2)c1=O | 5.31 µM and 6.94 µM | > 100 µM | –
CC(C)(O)CCc1cccc(C(=O)NCc2nccs2)c1 | > 100 µM | – | –
